According to PubChem BioAssay (NCI):
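Results reflect a 48-hour exposure of cells in 96-well plates to compound at five concentrations. Definition used: TGI = concentration required for complete inhibition of growth.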

Key:
Assay in all cases: inhibition of tumour cell growth, NCI panel, 48 h
[1] = system: LOX IMVI melanoma
[2] = system: SK-MEL-5 melanoma
[3] = system: SN12C renal
[4] = system: HOP-62 NSCLC
[5] = system: NCI/ADR-RES ovarian
[6] = system: CAKI-1 renal
[7] = system: UACC-62 melanoma
[8] = system: M14 melanoma
[9] = system: NCI-H226 lung
[10] = system: U251 CNS
[11] = system: SF-268 CNS
[12] = system: COLO 205 colon
[13] = system: HCC-2998 colon
[14] = system: MDA-MB-231 breast
[15] = system: IGROV1 ovarian
[16] = system: UACC-257 melanoma
[17] = system: KM12 colon
[18] = system: SNB-75 CNS
[19] = system: OVCAR-3 ovarian
[20] = system: SR leukemia

## CC[C@]12C=CCN3CCC4(c5cc([C@@]6(C(=O)OC)CC7CN(CCc8c6[nH]c6ccccc86)C[C@@H]6CCCC[C@H]76)c(OC)cc5N(C)C4[C@](O)(C(=O)OC)C1OC(C)=O)[C@@H]32 (stereo partly specified)
[1]
  TGI: 12.4 µM
[2]
  TGI: < 0.01 µM
[3]
  TGI: 18.3 µM
[4]
  TGI: 14.4 µM
[5]
  TGI: 0.0886 µM
[6]
  TGI: 16.7 µM
[7]
  TGI: 17.8 µM
[8]
  TGI: 3.14 µM
[9]
  TGI: 15.3 µM
[10]
  TGI: < 0.01 µM
[11]
  TGI: 16.5 µM
[12]
  TGI: < 0.01 µM
[13]
  TGI: < 0.01 µM
[14]
  TGI: < 0.01 µM

## c1cc2nnsc2s1
[1]
  TGI: > 100 µM
[2]
  TGI: > 100 µM
[3]
  TGI: > 100 µM
[4]
  TGI: > 100 µM
[15]
  TGI: > 100 µM
[16]
  TGI: > 100 µM
[6]
  TGI: > 100 µM
[7]
  TGI: > 100 µM
[8]
  TGI: > 100 µM
[17]
  TGI: > 100 µM
[9]
  TGI: > 100 µM
[10]
  TGI: > 100 µM
[11]
  TGI: > 100 µM
[12]
  TGI: > 100 µM
[18]
  TGI: > 100 µM
[13]
  TGI: > 100 µM

## O=C(O)CC(NC(=O)/C(=C/c1ccccc1)NC(=O)c1ccccc1)C(=O)O (stereo unspecified)
[1]
  TGI: > 100 µM
[2]
  TGI: > 100 µM
[3]
  TGI: > 100 µM
[4]
  TGI: > 100 µM
[15]
  TGI: > 100 µM
[5]
  TGI: > 100 µM
[16]
  TGI: > 100 µM
[6]
  TGI: > 100 µM
[7]
  TGI: > 100 µM
[19]
  TGI: > 100 µM
[8]
  TGI: > 100 µM
[17]
  TGI: > 100 µM
[9]
  TGI: > 100 µM
[10]
  TGI: > 100 µM
[11]
  TGI: > 100 µM
[12]
  TGI: > 100 µM
[18]
  TGI: > 100 µM
[13]
  TGI: > 100 µM
[14]
  TGI: > 100 µM

## CC(=O)OCCOCNC(=S)N/N=C/c1cc([N+](=O)[O-])ccc1O
[1]
  TGI: > 100 µM
[2]
  TGI: > 100 µM
[3]
  TGI: > 100 µM
[4]
  TGI: > 100 µM
[15]
  TGI: > 100 µM
[16]
  TGI: > 100 µM
[7]
  TGI: > 100 µM
[19]
  TGI: > 100 µM
[8]
  TGI: > 100 µM
[17]
  TGI: > 100 µM
[9]
  TGI: > 100 µM
[10]
  TGI: > 100 µM
[11]
  TGI: > 100 µM
[12]
  TGI: > 100 µM
[18]
  TGI: > 100 µM
[13]
  TGI: > 100 µM

## COC1(C)C(=O)N2C1N(C(=O)OC(C)(C)C)CC2(C)C (stereo unspecified)
[1]
  TGI: 53.1 µM
[2]
  TGI: > 100 µM
[3]
  TGI: > 100 µM
[4]
  TGI: > 100 µM
[15]
  TGI: > 100 µM
[16]
  TGI: > 100 µM
[6]
  TGI: > 100 µM
[7]
  TGI: > 100 µM
[19]
  TGI: > 100 µM
[8]
  TGI: > 100 µM
[17]
  TGI: > 100 µM
[9]
  TGI: > 100 µM
[10]
  TGI: > 100 µM
[11]
  TGI: > 100 µM
[12]
  TGI: > 100 µM
[18]
  TGI: > 100 µM
[13]
  TGI: > 100 µM

## CC(=O)OCC1OC(OC2C(COC(C)=O)OC(Sc3ccccc3C)C(OC(C)=O)C2OC(C)=O)C(OC(C)=O)C(OC(C)=O)C1OC(C)=O (stereo unspecified)
[2]
  TGI: > 100 µM
[3]
  TGI: > 100 µM
[4]
  TGI: > 100 µM
[15]
  TGI: > 100 µM
[16]
  TGI: > 100 µM
[6]
  TGI: > 100 µM
[7]
  TGI: > 100 µM
[8]
  TGI: > 100 µM
[17]
  TGI: > 100 µM
[9]
  TGI: > 100 µM
[10]
  TGI: > 100 µM
[11]
  TGI: > 100 µM
[12]
  TGI: > 100 µM
[18]
  TGI: > 100 µM
[13]
  TGI: > 100 µM
[20]
  TGI: > 100 µM

## O=[N+]([O-])c1ccc(N/N=C2/CC3=C2CCCCCCCCCC3)c([N+](=O)[O-])c1
[2]
  TGI: > 100 µM
[3]
  TGI: > 100 µM
[4]
  TGI: > 100 µM
[15]
  TGI: > 100 µM
[5]
  TGI: > 100 µM
[16]
  TGI: > 100 µM
[6]
  TGI: > 100 µM
[7]
  TGI: > 100 µM
[19]
  TGI: > 100 µM
[8]
  TGI: > 100 µM
[17]
  TGI: > 100 µM
[9]
  TGI: > 100 µM
[10]
  TGI: > 100 µM
[11]
  TGI: > 100 µM
[12]
  TGI: > 100 µM
[18]
  TGI: > 100 µM
[13]
  TGI: > 100 µM
[14]
  TGI: > 100 µM

## CC(O)CN1c2ccccc2Sc2ccccc21 (stereo unspecified)
[1]
  TGI: > 100 µM
[2]
  TGI: > 100 µM
[3]
  TGI: > 100 µM
[4]
  TGI: > 100 µM
[15]
  TGI: > 100 µM
[5]
  TGI: > 100 µM
[16]
  TGI: > 100 µM
[6]
  TGI: > 100 µM
[7]
  TGI: > 100 µM
[19]
  TGI: > 100 µM
[8]
  TGI: > 100 µM
[17]
  TGI: > 100 µM
[9]
  TGI: > 100 µM
[10]
  TGI: > 100 µM
[11]
  TGI: > 100 µM
[12]
  TGI: > 100 µM
[13]
  TGI: > 100 µM
[14]
  TGI: > 100 µM

## CCOC(=O)C1(C#N)C(=O)c2cc[n+](CC[n+]3ccc4c(c3)C(=O)C(C#N)(C(=O)OCC)C4=O)cc2C1=O (stereo unspecified)
[1]
  TGI: > 100 µM
[2]
  TGI: 38.5 µM
[3]
  TGI: > 100 µM
[15]
  TGI: > 100 µM
[5]
  TGI: > 100 µM
[16]
  TGI: > 100 µM
[6]
  TGI: > 100 µM
[7]
  TGI: > 100 µM
[19]
  TGI: > 100 µM
[8]
  TGI: > 100 µM
[17]
  TGI: > 100 µM
[9]
  TGI: > 100 µM
[10]
  TGI: > 100 µM
[11]
  TGI: > 100 µM
[18]
  TGI: > 100 µM
[13]
  TGI: > 100 µM
[14]
  TGI: > 100 µM

## COc1ccc2[nH]c3c(c2c1)CC(=O)N1CCCC(CC3O)C1 (stereo unspecified)
[1]
  TGI: > 100 µM
[2]
  TGI: > 100 µM
[3]
  TGI: > 100 µM
[15]
  TGI: > 100 µM
[5]
  TGI: > 100 µM
[16]
  TGI: > 100 µM
[6]
  TGI: > 100 µM
[7]
  TGI: > 100 µM
[17]
  TGI: > 100 µM
[9]
  TGI: > 100 µM
[10]
  TGI: > 100 µM
[11]
  TGI: > 100 µM
[12]
  TGI: > 100 µM
[18]
  TGI: > 100 µM
[13]
  TGI: > 100 µM
[14]
  TGI: > 100 µM

## CN/C=C(\C(=O)c1ccc(OC)c(OC)c1)c1ccc(OC)cc1
[1]
  TGI: 29.8 µM
[2]
  TGI: 35 µM
[3]
  TGI: 31.7 µM
[4]
  TGI: 94 µM
[15]
  TGI: > 100 µM
[16]
  TGI: 39.5 µM
[7]
  TGI: 49.6 µM
[8]
  TGI: 37 µM
[17]
  TGI: 29.5 µM
[9]
  TGI: 41.5 µM
[10]
  TGI: 21.3 µM
[11]
  TGI: 72.9 µM
[12]
  TGI: 38.3 µM
[18]
  TGI: > 100 µM
[20]
  TGI: 60.7 µM

## O=C(Cc1ccccc1)NN1C(=O)/C(=C\c2cccc([N+](=O)[O-])c2)SC1=Nc1ccccc1
[2]
  TGI: > 100 µM
[3]
  TGI: > 100 µM
[4]
  TGI: > 100 µM
[15]
  TGI: > 100 µM
[5]
  TGI: > 100 µM
[16]
  TGI: > 100 µM
[7]
  TGI: > 100 µM
[19]
  TGI: > 100 µM
[8]
  TGI: > 100 µM
[17]
  TGI: > 100 µM
[9]
  TGI: > 100 µM
[10]
  TGI: > 100 µM
[11]
  TGI: > 100 µM
[12]
  TGI: > 100 µM
[18]
  TGI: > 100 µM
[13]
  TGI: > 100 µM
[14]
  TGI: > 100 µM

## O=c1[nH]c(=O)n(C2CC(O)C(CO)O2)cc1C(F)(C(F)(F)F)C(F)(F)F (stereo unspecified)
[1]
  TGI: > 100 µM
[2]
  TGI: > 100 µM
[3]
  TGI: > 100 µM
[4]
  TGI: > 100 µM
[15]
  TGI: > 100 µM
[16]
  TGI: > 100 µM
[6]
  TGI: > 100 µM
[7]
  TGI: > 100 µM
[19]
  TGI: > 100 µM
[8]
  TGI: > 100 µM
[17]
  TGI: > 100 µM
[9]
  TGI: > 100 µM
[10]
  TGI: > 100 µM
[11]
  TGI: > 100 µM
[12]
  TGI: > 100 µM
[18]
  TGI: > 100 µM
[20]
  TGI: > 100 µM
